Key:
[1] = system: MAT-LyLu-B2 prostate cancer cells; assay: orthoptic prostate cancer rat model (tumor progression); type: in vivo; conditions: male Copenhagen rats, 3 mg/kg s.c. daily from day 1, 21 days after surgery, n=5-6, p<0.05; saline 1856±443 mg
Experimental: The potential of a BKB1-R antagonist to inhibit tumor progression in an orthoptic prostate cancer rat model was evaluated. Under anesthesia, male Copenhagen rats were injected in the anterior prostatic lobe with 100 000 MAT-LyLu-B2 prostate cancer cells. One day after the surgery, the animals received a daily injection of either saline or Compound A (3 mg/kg s.c.). At 21 days after the surgery, the animals were sacrificed and the prostate tumor was excised and weighted. Average weight of the prostate and tumor was 1856±443 mg for saline-treated rats and 504±135 mg with Compound A-treated animals (n=5-6 p<0.05). Two other cancerous cell-types (R 3327-G, MAT-Lu) were implanted in rats and similar results were obtained at inhibiting tumor progression dose-dependently over periods of time. A BKB1-Ra was also reported effective at stopping and reversing the progression of established tumor, considering efficacy, reversibility and relapse of treatment. These elements were maintained upon dual and triple combinations with other anti-cancer, anti-angiogenic, anti-proliferative agents such as taxane and platinum related compounds.

PC-3 cells = conditions: in vitro, cited from earlier work

With “Ac-Orn[Oic^2,(α-Me)Phe^5,D-βNal^7,Ile^8]desArg^9BK [Compound A]” the “Average weight of the prostate and tumor” value [1] was 504 ± 135 mg.
In the case of “Arg Pro Pro Gly Phe Ser Pro Phe (RPPGFSPF; desArg9 BK) [desArg^9-BK]”, the “cell growth and proliferation of PC-3 cells” value (PC-3 cells; BKB1-R agonist alone) is given as “stimulated”.
For [Leu^8]desArg^9-BK, the “effect on desArg^9-BK-stimulated growth of PC-3 cells” value (PC-3 cells; growth stimulated by desArg^9-BK) is listed as “blocked”.
